Test results from patent US7906477B2 (Genspera, Inc., priority 2002, dated 2011).
Square brackets hold non-standard residues; d marks the D form. Ends that are not written are not given here. Peptide text beside a SMILES is read from it. Tyr(3-NO2) = N[C@@H](Cc1ccc(O)c([N+](=O)[O-])c1)C(=O)O; Abz = aminobenzoic acid; 2Abz = Nc1ccccc1C(=O)O; Dap = NC[C@H](N)C(=O)O

Assays:
hK2 = target: T1, hK2 (Homo sapiens, UniProt P20151); assay: hK2 mediated hydrolysis of peptide substrates in solution (fluorescence); type: biochemical; details: for hK2 mediated hydrolysis (in words, FIG. 2): substrates 250 μM, 8 μg/ml hK2 in PBS buffer; for digestion by hK2 of arginine-free peptides (in words): in solution, even after prolonged incubation
T1 construct: made in house
T1 sequence (P20151 25-261): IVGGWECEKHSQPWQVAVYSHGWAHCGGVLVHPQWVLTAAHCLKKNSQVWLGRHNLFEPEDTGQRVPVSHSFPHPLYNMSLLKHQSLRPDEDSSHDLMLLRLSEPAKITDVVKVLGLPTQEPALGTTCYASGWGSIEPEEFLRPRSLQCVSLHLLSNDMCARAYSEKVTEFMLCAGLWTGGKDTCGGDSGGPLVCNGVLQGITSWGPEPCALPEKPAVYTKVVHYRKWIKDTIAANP
Method: FIG. 2 depicts a graph of hK2 mediated hydrolysis of peptide substrates identified through the screening of a random peptide library [Y′GKARAF-Dap-FK′ (SEQ ID NO:36), Y′GKAKPR-Dap-FK′ (SEQ ID NO:37), Y′GKAFRR-Dap-FK′ (SEQ ID NO:38), Y′GKAMRQ-Dap-FK′ (SEQ ID NO:39) and Y′GSKGHFKL-Dap-F-K′ (SEQ ID NO:40)]. Substrates (250 μM) were incubated with 8 μg/ml hK2 in PBS buffer. Hydrolysis of peptide results in increased fluorescence, as measured using a 96 well fluorometer. […] To determine 100% digestion, trypsin was added (50 mg/ml) and samples were incubated to 37° C. for 30 min and the fluorescence was determined. The percentage digested is determined by dividing fluorescence units of sample by fluorescence units of control fully digested peptide.
A mutant form of hK2 was utilized in which the amino acids −5 to −1 of the propeptide sequence of hK2 (i.e. Leu-Ile-Gln-Ser-Arg; SEQ ID NO:15) were mutated to Asp-Asp-Asp-Asp-Lys (SEQ ID NO:16) to generate a pro-hK2 protein that can be activated to functional hK2 by […] (Lovgren, J. et al. (1999) Eur. J. Biochem. 266:1050-1055). Compared with wild-type hK2, expression of the propeptide hK2 mutant increases the expression levels up to 15-40-fold (Lovgren, J. et al. (1999) Eur. J. Biochem. 266:1050-1055). The generation and characteristics of this mutant hK2 have been previously described (Lovgren, J. et al. (1999) Eur. J. Biochem. 266:1050-1055).
For validation of the Edman results, peptides were re-synthesized using a Rainin PS3 peptide synthesizer with HBTU/NMM activation. Peptides were synthesized on PEGA resin for on-bead analysis or on Fmoc-Lys(Mtt)-Wang resin for solution assays. The Fmoc-Lys(Mtt)-Wang resin was first deprotected with 2% TFA in DCM (3×2 min). The ε-amine of lysine was then acylated with Boc-Abz. Deprotection/cleavage was performed in TFA/TIS/water (95:2.5:2.5 v/v) for 2-3 hours. Peptides were ether precipitated, dried and purified by C18-HPLC using a linear gradient of acetonitrile (0.1% TFA), lyophilized and dissolved in DMSO. Peptide identities were confirmed by analysis on a Perseptive Voyager DE-STR MALDI-TOF using dihydroxy benzoic acid as a matrix. Fluorescence measurements were performed on a Fluoroskan II 96-well plate reader (ICN biomedicals, Costa Mesa, Calif.; excitation, 355 nm; emission, 460 nm). Kinetic parameters were calculated as described earlier (Denmeade, S. R. et al. (1997) Cancer Res. 57:4924-4930).
The combinatorial screen identified seven arginine-containing peptides. Four of these were re-synthesized (X1-X2-X3=RAF, KPR, FRR and MRQ respectively). Three other lead sequences were not re-synthesized (X1-X2-X3=IQR, FRK and VRQ respectively). All four arginine-containing sequences that were re-synthesized reproduced fluorescence when these peptides were digested on-bead with hK2. For a more quantitative analysis, the fluorescence-quenched peptides were cleaved off the resin and purified by HPLC. The rate of hydrolysis was quantified by measuring increase in fluorescence (Figure). […] In less than five minutes, more than 50% of the peptide was digested (500 μM peptide, 4 μg/ml hK2). For the other peptides, digestion of the same amount of peptide took 19-29 minutes. […] In subsequent studies, hydrolysis rates using the Y′GKAFRR-Dap-F-K′ (SEQ ID NO:38) peptide were analyzed by Lineweaver-Burke reciprocal plots.

[1] = plasma stability in 50% human plasma; type: in vitro ADME; details: for remaining at 3 h, 500 μM: HPLC, read-out: parent peptide remaining after 3 hours; for degradation after overnight incubation (in words): human plasma
Method: FIG. 5 depicts the stability of Ac-GKAFRR-L12ADT (SEQ ID NO:41) in human plasma after a 24 hour incubation, as determined by HPLC analysis. Ac-GKAFRR-L12ADT (SEQ ID NO:41) was incubated in 50% human plasma for 24 hours at room temperature. Peak 1 represents an unidentified plasma contaminant that was also present in control plasma. Peaks 2 and 3 both represent Ac-GKAFRR-L12ADT (SEQ ID NO:41) as confirmed by MALDI-TOF mass spectrometric analysis.
(§1) Mouse plasma was obtained from cardiac puncture of anesthetized mice prior to euthanization by CO2 overdose according to protocols approved by the Johns Hopkins Animal Care and Use Committee. Human plasma was obtained from discarded, pooled, and unlabeled clinical samples. Plasma was diluted to 50% in Tris buffer (50 mM Tris-HCl, 100 mM NaCl, pH 7.8). To this, test peptides/prodrugs were added to 250 or 500 μM final concentration. After the incubation period, one volume (200 μl) of acetonitrile was added to precipitate the protein fraction and the tube was centrifuged at 14,000 for 2 min. The supernatant was analyzed by C18-HPLC and the collected peaks were analyzed by MALDI-TOF as described above.
(§2) Arginine-containing peptides are potential substrates for the wide variety of other trypsin-like proteases that are present in the blood and may have residual activity in the blood. The plasma stability of an hK2 peptide substrate may therefore be limited and this would have significant consequences related to the development of an hK2 activated prodrug. Therefore, two fluorescence quenched hK2 peptide substrates peptides were incubated in 50% mouse or human plasma (diluted in PBS buffer) to determine stability using a plate-reader. As observed with arginine containing peptides from the SPOT analysis above, none of the arginine-containing, fluorescence quenched hK2peptide substrates were stable in human or mouse plasma. Fluorescence-quenched Y′GKAFRR-Dap-GK′ (SEQ ID NO:42) and Y′GKAFRRLGK′ (SEQ ID NO:21) (500 μM each) were hydrolyzed when incubated in 50% mouse or human plasma (FIG. 7). Mouse plasma degraded the peptides faster than human plasma (FIG. 7). […] In human plasma, more peptide remained after 3 hours (˜25%). […] The proteolytic activity from plasma was never affected by repeated freeze-thaw cycles or by storage of the mouse plasma alone at room temperature for several days.
To determine the plasma stability for the hK2 prodrug, the prodrug was incubated in 50% fresh heparinized (1%) plasma for 24 hours at room temperature, precipitated the proteins by adding one volume of 1% TFA in acetonitrile and analyzed the supernatant by HPLC. Unexpectedly, BPLC analysis after 24 hrs incubation in plasma yielded only a single peak corresponding to the hK2 prodrug (FIG. 5). MALDI-TOF MS of the isolated single peak confirmed the stability of the molecule.

[2] = plasma stability in 50% mouse plasma; type: in vitro ADME; details: 500 μM; for parent peptide remaining after 3 hours (in words): HPLC
Method: as §1, §2

## C[C@H](NC(=O)[C@H](CCCCN)NC(=O)CNC(=O)[C@@H](N)Cc1ccc(O)c([N+](=O)[O-])c1)C(=O)N[C@@H](Cc1ccccc1)C(=O)N[C@@H](CCCNC(=N)N)C(=O)N[C@@H](CCCNC(=N)N)C(=O)N[C@@H](CN)C(=O)N[C@@H](Cc1ccccc1)C(=O)N[C@@H](CCCCNC(=O)c1ccccc1N)C(=O)O [Y′GKAFRR-Dap-F-K′] (H-[Tyr(3-NO2)]GKAFRR[Dap]FK(2Abz)-OH; N-terminus assumed)
hK2; 500 μM peptide, 4 μg/ml hK2
  maximum digestion: 70-75%
  time in which more than 50% of the peptide was digested: less than five
  time to reach maximum digestion: less than 15 minutes
hK2
  hK2 mediated hydrolysis (in words, FIG. 2): by far exceeded all other substrates

## C[C@H](NC(=O)[C@H](CCCCN)NC(=O)CNC(=O)[C@@H](N)Cc1ccc(O)c([N+](=O)[O-])c1)C(=O)N[C@@H](Cc1ccccc1)C(=O)N[C@@H](CCCNC(=N)N)C(=O)N[C@@H](CCCNC(=N)N)C(=O)N[C@@H](CN)C(=O)NCC(=O)N[C@@H](CCCCNC(=O)c1ccccc1N)C(=O)O [Y′GKAFRR-Dap-GK′] (H-[Tyr(3-NO2)]GKAFRR[Dap]GK(2Abz)-OH; N-terminus assumed)
[1]; 50% human plasma, 500 μM
  remaining at 3 h, 500 μM: ~25%
[1]
  degradation after overnight incubation (in words): complete degradation
[2]
  parent peptide remaining after 3 hours (in words): almost no parent peptide remained

## CC(C)C[C@H](NC(=O)[C@H](CCCNC(=N)N)NC(=O)[C@H](CCCNC(=N)N)NC(=O)[C@H](Cc1ccccc1)NC(=O)[C@H](C)NC(=O)[C@H](CCCCN)NC(=O)CNC(=O)[C@@H](N)Cc1ccc(O)c([N+](=O)[O-])c1)C(=O)NCC(=O)N[C@@H](CCCCNC(=O)c1ccccc1N)C(=O)O [Y′GKAFRRLGK′] (H-[Tyr(3-NO2)]GKAFRRLGK(2Abz)-OH)
hK2; compare FIG. 2 with FIG. 8
  hK2 hydrolysis rate after substitution of Dap-F with Leu-Gly (in words): only a modest decrease in hydrolysis rate
[1]; 50% human plasma, 500 μM
  relative stability of the peptides (in words): less stable than the Dap containing peptide
  remaining at 3 h, 500 μM: ~25%
[1]
  degradation after overnight incubation (in words): complete degradation
[2]
  relative stability of the peptides (in words): less stable than the Dap containing peptide
  parent peptide remaining after 3 hours (in words): almost no parent peptide remained

## Y′GSKGHFHL-Dap-K′: arginine-free fluorescence-quenched peptide from SPOT analysis sequence ([Tyr(3-NO2)]GSKGHFHL[Dap]K(Abz))
hK2
  digestion by hK2 of arginine-free peptides (in words): none of these three arginine free peptides were digested by hK2

## Y′GSKGHFKL-Dap-F-K′: fluorescence-quenched substrate without arginine ([Tyr(3-NO2)]GSKGHFKL[Dap]FK(Abz))
hK2
  hK2 mediated hydrolysis (in words, FIG. 2): did not show any hydrolysis

## Y′GSKGHFKL-Dap-K′: arginine-free fluorescence-quenched peptide, P1 lysine ([Tyr(3-NO2)]GSKGHFKL[Dap]K(Abz))
hK2
  digestion by hK2 of arginine-free peptides (in words): none of these three arginine free peptides were digested by hK2

## Y′GSKGPFKL-Dap-K′: arginine-free fluorescence-quenched peptide derivative ([Tyr(3-NO2)]GSKGPFKL[Dap]K(Abz))
hK2
  digestion by hK2 of arginine-free peptides (in words): none of these three arginine free peptides were digested by hK2
